How the values were obtained:
Assay in all cases: DSF thermal shift, kinase panel
Type in all cases: binding
Details in all cases: 10 μM compound
STK6A = target: T1, STK6A (Homo sapiens, UniProt O14965)
T1 construct: TEV-cleavable (cleaved yes); made in house; host or cells: E. coli
T1 sequence (O14965 1-403): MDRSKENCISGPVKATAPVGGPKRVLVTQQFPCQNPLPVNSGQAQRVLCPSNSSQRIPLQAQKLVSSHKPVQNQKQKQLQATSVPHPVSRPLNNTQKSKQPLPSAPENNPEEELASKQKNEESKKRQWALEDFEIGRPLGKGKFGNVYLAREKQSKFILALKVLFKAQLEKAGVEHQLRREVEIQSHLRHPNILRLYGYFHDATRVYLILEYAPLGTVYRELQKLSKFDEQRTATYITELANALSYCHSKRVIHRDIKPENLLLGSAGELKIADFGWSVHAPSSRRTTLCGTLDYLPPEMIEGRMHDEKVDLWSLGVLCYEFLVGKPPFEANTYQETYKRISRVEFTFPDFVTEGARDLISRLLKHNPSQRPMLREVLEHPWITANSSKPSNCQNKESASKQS
Procedure, shortened: (§1)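 Kinase domains produced in E. coli were purified by Ni-chelate, TEV cleavage and gel filtration. Each was mixed at 1 µM with dye and 10 µM test compound in pH 7.5 phosphate buffer, then melted from 25 to 95 °C; thermal shifts were calculated against DMSO-only protein.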

EPHA2A = target: T2, EPHA2A (Homo sapiens, UniProt P29317)
T2 construct: purchased in-house (home-made panel, SGC-style construct names)
Procedure, shortened: as §1

GSG2A = target: T3, GSG2A (Homo sapiens, UniProt Q8TF76)
T3 construct: purchased in-house (home-made panel, SGC-style construct names)
T3 sequence (Q8TF76 1-798): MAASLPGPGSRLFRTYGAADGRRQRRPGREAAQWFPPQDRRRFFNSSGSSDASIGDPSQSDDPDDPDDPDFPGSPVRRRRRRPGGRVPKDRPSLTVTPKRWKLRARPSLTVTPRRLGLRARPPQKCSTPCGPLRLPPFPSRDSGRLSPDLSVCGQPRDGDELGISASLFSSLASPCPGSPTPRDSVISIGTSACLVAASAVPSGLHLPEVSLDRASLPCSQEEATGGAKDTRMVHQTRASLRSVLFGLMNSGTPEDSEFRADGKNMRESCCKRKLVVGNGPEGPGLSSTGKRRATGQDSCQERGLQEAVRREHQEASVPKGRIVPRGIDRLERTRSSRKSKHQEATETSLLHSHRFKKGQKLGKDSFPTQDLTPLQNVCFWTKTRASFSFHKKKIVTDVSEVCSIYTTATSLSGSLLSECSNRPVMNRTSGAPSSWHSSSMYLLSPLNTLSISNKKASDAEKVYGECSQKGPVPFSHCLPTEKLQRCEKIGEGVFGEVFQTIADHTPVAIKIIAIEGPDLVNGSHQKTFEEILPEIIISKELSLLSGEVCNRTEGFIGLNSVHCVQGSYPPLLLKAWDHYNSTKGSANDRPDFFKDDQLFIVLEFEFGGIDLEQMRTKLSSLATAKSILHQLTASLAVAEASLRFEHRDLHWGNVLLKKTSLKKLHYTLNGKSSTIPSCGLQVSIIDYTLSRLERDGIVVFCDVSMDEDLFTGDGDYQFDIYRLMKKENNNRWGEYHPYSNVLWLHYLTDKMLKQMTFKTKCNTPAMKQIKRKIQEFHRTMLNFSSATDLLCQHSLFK
Procedure, shortened: as §1

CDKL1 = target: T4, CDKL1 (Homo sapiens, UniProt Q00532)
T4 construct: purchased in-house (home-made panel, SGC-style construct names)
Procedure, shortened: as §1

DYRK2A = target: T5, DYRK2A (Homo sapiens, UniProt Q92630)
T5 construct: purchased in-house (home-made panel, SGC-style construct names)
T5 sequence (Q92630 1-601): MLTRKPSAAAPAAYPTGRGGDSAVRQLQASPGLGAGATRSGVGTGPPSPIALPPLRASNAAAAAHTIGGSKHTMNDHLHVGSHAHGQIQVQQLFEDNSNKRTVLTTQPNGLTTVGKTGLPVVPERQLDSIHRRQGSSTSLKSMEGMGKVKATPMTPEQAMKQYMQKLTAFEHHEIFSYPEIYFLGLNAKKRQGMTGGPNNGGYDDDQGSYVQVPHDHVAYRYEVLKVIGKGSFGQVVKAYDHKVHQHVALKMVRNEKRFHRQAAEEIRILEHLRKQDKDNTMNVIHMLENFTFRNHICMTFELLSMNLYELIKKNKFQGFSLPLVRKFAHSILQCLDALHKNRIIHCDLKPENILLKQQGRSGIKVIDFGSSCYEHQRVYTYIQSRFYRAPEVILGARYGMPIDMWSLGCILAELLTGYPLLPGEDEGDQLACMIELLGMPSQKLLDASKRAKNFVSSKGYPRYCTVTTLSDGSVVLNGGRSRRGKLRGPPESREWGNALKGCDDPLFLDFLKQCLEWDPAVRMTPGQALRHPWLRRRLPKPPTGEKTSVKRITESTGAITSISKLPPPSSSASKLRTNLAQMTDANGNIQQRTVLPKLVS
Procedure, shortened: as §1

T4 sequence (Q00532 whole entry): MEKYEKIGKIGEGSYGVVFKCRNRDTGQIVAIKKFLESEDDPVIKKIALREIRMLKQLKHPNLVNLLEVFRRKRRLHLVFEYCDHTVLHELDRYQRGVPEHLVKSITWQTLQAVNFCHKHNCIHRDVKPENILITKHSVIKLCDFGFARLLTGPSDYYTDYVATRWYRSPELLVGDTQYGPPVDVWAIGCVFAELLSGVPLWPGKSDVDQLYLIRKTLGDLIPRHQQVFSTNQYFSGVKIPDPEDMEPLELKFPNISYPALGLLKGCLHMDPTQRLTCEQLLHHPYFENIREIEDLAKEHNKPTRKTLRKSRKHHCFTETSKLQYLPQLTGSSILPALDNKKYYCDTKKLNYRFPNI
T2 sequence (P29317 24-976): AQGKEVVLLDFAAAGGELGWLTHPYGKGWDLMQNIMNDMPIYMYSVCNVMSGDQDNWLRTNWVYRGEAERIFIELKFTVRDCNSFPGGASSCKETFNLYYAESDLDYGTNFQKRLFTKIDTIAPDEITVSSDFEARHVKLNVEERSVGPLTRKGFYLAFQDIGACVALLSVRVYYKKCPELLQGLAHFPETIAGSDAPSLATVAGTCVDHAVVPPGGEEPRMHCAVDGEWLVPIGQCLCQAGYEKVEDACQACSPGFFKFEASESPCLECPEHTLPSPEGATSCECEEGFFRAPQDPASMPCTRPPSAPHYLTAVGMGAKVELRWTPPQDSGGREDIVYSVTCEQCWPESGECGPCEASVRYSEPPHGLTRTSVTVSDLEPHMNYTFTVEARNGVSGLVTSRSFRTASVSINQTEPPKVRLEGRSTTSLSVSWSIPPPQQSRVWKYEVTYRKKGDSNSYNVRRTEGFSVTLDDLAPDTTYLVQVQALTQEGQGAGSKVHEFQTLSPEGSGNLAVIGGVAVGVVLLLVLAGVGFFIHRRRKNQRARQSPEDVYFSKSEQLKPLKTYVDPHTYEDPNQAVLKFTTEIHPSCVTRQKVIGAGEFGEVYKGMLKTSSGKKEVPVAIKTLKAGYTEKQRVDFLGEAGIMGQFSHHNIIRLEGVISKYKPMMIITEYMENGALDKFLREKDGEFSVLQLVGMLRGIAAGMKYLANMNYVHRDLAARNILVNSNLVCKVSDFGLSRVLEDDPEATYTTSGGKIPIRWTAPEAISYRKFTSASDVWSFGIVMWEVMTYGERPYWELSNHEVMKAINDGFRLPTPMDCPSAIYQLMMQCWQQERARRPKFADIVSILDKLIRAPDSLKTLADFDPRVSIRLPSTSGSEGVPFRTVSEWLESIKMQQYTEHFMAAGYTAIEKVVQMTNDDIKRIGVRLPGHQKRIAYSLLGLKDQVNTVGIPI

Compound	ΔTm at 10 µM (STK6A)	ΔTm at 10 µM (EPHA2A)	ΔTm at 10 µM (GSG2A)	ΔTm at 10 µM (CDKL1)	ΔTm at 10 µM (DYRK2A)
Cc1ccc(Nc2nsnc(Nc3ccc(C(N)=O)cc3)c2=O)cc1O [Compound 2, 4-({5-[(3-Hydroxy-4-methylphenyl)amino]-4-oxo-4H-1,2,6-thiadiazin-3-yl}amino)benzamide]	1 °C	0.5 °C	1.3 °C	1 °C	2.4 °C
CNC(=O)c1ccccc1Nc1nsnc(Nc2ccc(N3CCOCC3)cc2)c1=O [Compound 5, N-Methyl-2-({5-[(4-morpholinophenyl)amino]-4-oxo-4H-1,2,6-thiadiazin-3-yl}amino)benzamide]	0.5 °C	0 °C	0.3 °C	0.5 °C	0.1 °C
Cc1ccc(Nc2nsnc(Nc3ccc4c(c3)CS(=O)(=O)C4)c2=O)cc1O [Compound 3, 3-[(2,2-Dioxido-1,3-dihydrobenzo[c]thiophen-5-yl)amino]-5-[(3-hydroxy-4-methylphenyl)amino]-4H-1,2,6-thiadiazin-4-one]	0.1 °C	0.8 °C	1.2 °C	0.9 °C	0.7 °C
Cc1ccc(Nc2nsnc(Nc3cccc(C(N)=O)c3)c2=O)cc1O [Compound 1, 3-({5-[(3-Hydroxy-4-methylphenyl)amino]-4-oxo-4H-1,2,6-thiadiazin-3-yl}amino)benzamide]	-0.3 °C	0.2 °C	0.6 °C	1.2 °C	0.1 °C
CNC(=O)c1ccccc1Nc1nsnc(Nc2cccc(CS(C)(=O)=O)c2)c1=O [Compound 4, N-Methyl-2-([5-({3-[(methylsulfonyl)methyl]phenyl}amino)-4-oxo-4H-1,2,6-thiadiazin-3-yl]-amino}-benzamide]	-0.1 °C	-0.1 °C	0.4 °C	0.5 °C	0.1 °C

Reference: publication PMC6019134, “1,2,6-Thiadiazinones as Novel Narrow Spectrum Calcium/Calmodulin-Dependent Protein Kinase Kinase 2 (CaMKK2) Inhibitors” (Molecules : A Journal of Synthetic Chemistry and Natural …, 2018)
